Experimental data as given in patent US20240034743A9, “TRICYCLIC COMPOUNDS AS EGFR INHIBITORS” (QILU PHARMACEUTICAL CO., LTD., priority 2020, published 2024).
Where two headings read alike, the source gives them in different places.

Columns and labels:
[1] = system: Ba/F3_L858R/T790M/C797S cells; test: Ba/F3_L858R/T790M/C797S cell proliferation inhibition assay (CellTiter-Glo); format: cell-based; conditions: Mus musculus
Method: Ba/F3_L858R/T790M/C797S Cell Proliferation Inhibition Assay
In the assay, the inhibition effect of the compounds on the proliferation of Ba/F3_L858R/T790M/C797S cells was tested by adopting a CellTiter-Glo method, and the concentration IC50 of the compound for inhibiting half maximal growth of cells was obtained.
Ba/F3_L858R/T790M/C797S cells were constructed by Pharmaron Beijing Co., Ltd.
1640 medium, fetal bovine serum (FBS), Penicillin-Streptomyces, and GlutaMAX-I Supplement, purchased from GIBCO.
(§1) Brigatinib, purchased from Selleck.
(§2) CellTiter-Glo reagent, purchased from Promega.
1) Ba/F3_L858R/T790M/C797S cells were seeded in a 384-well plate at a density of 700 cells/well with 30 μL/well.
(§3) 2) Day 0: […] of gradiently-diluted compounds to be tested with a final concentration of DMSO of 0.1% was added to plate using Echo, and the plate was incubated in a cell incubator for 72 h (37° C., 5% CO2). […] of DMSO was added into each well in blank control group.
(§4) 3) Day 3: 30 μL Cell Titer-Glo reagent was added to each well, and the plate was in the dark under room temperature for 30 min.
(§5) 4) The chemiluminescent signal was detected by an Envision plate reader (PerkinElmer).
(§6) 5) Data analysis was performed using GraphPad Prism software to give the IC50 for compounds.

A431 cells (EGFR WT) = test: A431 cell proliferation inhibition assay (CellTiter-Glo); format: cell-based; conditions: Homo sapiens
Method: A431 Cell Proliferation Inhibition Assay
In the assay, the inhibition effect of the compounds on the proliferation of A431 cells was tested by adopting a CellTiter-Glo method, and the concentration IC50 of the compound for inhibiting half maximal growth of cells was obtained.
A431 cells, purchased from ATCC.
DMEM medium, fetal bovine serum (FBS), and Penicillin-Streptomycin, purchased from GIBCO.
as §1, §2
1) A431 cells were seeded in a 384-well plate at a density of 800 cells/well with 30 μL/well, and the plate was cultured in a cell incubator for 24 h (37° C., 5% CO2).
as §3, §4, §5, §6

[2] = system: Ba/F3_Del19/T790M/C797S cells; test: Ba/F3_Del19/T790M/C797S cell proliferation inhibition assay (CellTiter-Glo); format: cell-based; conditions: Mus musculus
Method: Ba/F3_Del19/T790M/C797S Cell Proliferation Inhibition Assay
In the assay, the inhibition effect of the compounds on the proliferation of Ba/F3_Del19/T790M/C797S cells was tested by adopting a CellTiter-Glo method, and the concentration IC50 of the compound for inhibiting half maximal growth of cells was obtained.
Ba/F3_Del19/T790M/C797S, purchased from Kyinno Biotechnology Co., Ltd. 1640 medium, fetal bovine serum (FBS), Penicillin-Streptomyces, and GlutaMAX-I Supplement, purchased from GIBCO.
as §1, §2
1) Ba/F3_Del19/T790M/C797S cells were seeded in a 384-well plate at a density of 700 cells/well with 30 μL/well.
as §3, §4, §5
Data analysis was performed using GraphPad Prism 6 software to give the IC50 for compounds.

EGFR WT (wild type EGFR) = EGFR WT (wild type EGFR) (Homo sapiens (Human), UniProt P00533); test: In vitro enzymatic TR-FRET (HTRF KinEASE-TK) kinase assay, EGFR WT; format: biochemical; conditions: kinase activity, TR-FRET; read-out: EGFR (WT) IC50
Method: (I) In Vitro Enzymatic Experiment for EGFR WT and EGFR L858R/T790M/C797S
In the assay, the inhibition effect of the compound on the kinase activity of EGFR WT (wild type EGFR) and EGFR L858R/T790M/C797S was tested by adopting a time-resolved fluorescence resonance energy transfer (TR-FRET) method, and half maximal inhibitory concentration IC50 of the compound on the kinase activity of EGFR was obtained.
EGFR recombinase and EGFR L858R/T790M/C797S recombinase, purchased from Signalchem.
HTRF KinEASE-TK kit, purchased from Cisbio.
DTT, MnCl2, and MgCl2, purchased from Sigma.
ATP, purchased from Promega.
as §1
1) 1× working solution was prepared: 5 mM MgCl2; 1 mM DTT; 1 mM MnCl2 and 1× kinase buffer (in kit).
2) […] of gradiently-diluted compound was transferred to a 384-well plate using Echo 550 (Labcyte).
3) 5 μL of 2× EGFR WT or EGFR L858R/T790M/C797S recombinase solution was added to the 384-well plate, and the plate was incubated at room temperature for 10 min.
4) 5 μL of 2× TK-substrate-biotin substrate solution (containing ATP) was added to the 384-well plate, and the plate was incubated at room temperature for 40 min.
5) 5 μL of assay solution containing Sa-XL 665 HTRF and 5 μL of TK-antibody-Cryptatewas were added to the plate, and the plate was incubated at room temperature for 1 h.
6) The fluorescence signal values at 615 nm and 665 nm were measured for each well using an Envision microplate reader (PerkinElmer).
7) The ratio of fluorescence signal values at 665 nm and 615 nm was calculated for each well.
8) Data analysis was performed using GraphPad Prism software to give the IC50 for compounds.

[3] = BaF3, cell proliferation, 72 h, CellTiter-Glo, read-out: Ba/F3 (L858R/T790M/C797S) IC50
[4] = A-431, cell proliferation, 72 h, CellTiter-Glo, read-out: A431 EGFR WT IC50
[5] = BaF3, cell proliferation, 72 h, CellTiter-Glo, read-out: Ba/F3 (Del19/T790M/C797S) IC50
[6] = BaF3, 72 h, read-out: Ba/F3 (L858R/T790M/C797S) IC50(nM)
[7] = A-431, 72 h, read-out: A431 EGFR WT IC50(nM)
[8] = BaF3, 72 h, read-out: Ba/F3 (Del19/T790M/C797S) IC50(nM)

Sequence of EGFR WT (wild type EGFR) (P00533 25-1210): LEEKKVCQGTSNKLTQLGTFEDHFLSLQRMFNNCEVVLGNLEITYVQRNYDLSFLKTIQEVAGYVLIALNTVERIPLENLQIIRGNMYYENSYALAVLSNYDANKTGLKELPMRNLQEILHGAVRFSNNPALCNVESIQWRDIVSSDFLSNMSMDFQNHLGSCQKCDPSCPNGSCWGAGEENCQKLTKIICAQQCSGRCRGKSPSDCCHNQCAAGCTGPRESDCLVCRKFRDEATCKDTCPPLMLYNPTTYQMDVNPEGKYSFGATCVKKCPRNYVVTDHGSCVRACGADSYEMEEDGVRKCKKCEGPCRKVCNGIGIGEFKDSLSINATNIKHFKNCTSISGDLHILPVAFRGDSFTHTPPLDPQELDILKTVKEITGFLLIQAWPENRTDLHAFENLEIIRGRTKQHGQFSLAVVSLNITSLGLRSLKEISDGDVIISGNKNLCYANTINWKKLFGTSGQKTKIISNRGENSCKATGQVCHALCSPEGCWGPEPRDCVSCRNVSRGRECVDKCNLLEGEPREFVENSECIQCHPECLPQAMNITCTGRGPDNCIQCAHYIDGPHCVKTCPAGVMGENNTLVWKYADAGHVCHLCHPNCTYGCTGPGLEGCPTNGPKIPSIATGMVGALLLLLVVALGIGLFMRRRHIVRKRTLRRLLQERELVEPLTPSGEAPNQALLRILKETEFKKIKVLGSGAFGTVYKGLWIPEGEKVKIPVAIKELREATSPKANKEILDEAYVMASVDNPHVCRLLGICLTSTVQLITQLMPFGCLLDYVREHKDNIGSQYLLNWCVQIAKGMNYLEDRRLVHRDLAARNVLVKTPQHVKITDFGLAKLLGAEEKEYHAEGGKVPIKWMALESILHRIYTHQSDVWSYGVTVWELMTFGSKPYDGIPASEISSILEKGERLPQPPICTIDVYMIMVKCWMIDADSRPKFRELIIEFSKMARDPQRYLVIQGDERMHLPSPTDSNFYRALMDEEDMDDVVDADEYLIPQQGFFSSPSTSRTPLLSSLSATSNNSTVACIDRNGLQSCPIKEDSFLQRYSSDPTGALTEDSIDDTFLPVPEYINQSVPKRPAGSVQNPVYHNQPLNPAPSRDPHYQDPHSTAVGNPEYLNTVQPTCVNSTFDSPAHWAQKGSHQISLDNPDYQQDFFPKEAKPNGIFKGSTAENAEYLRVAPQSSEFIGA

| Structure (SMILES) | IC50 [1, 3] [nM] | IC50 (A431 cells (EGFR WT); [4]) [nM] | IC50 [2, 5] [nM] | IC50 (EGFR WT (wild type EGFR)) [nM] | IC50 [1, 6] [nM] | IC50 (A431 cells (EGFR WT); [7]) [nM] | IC50 [2, 8] [nM] |
| --- | --- | --- | --- | --- | --- | --- | --- |
| COc1cc2c(cc1Nc1nc(Nc3ccc4nccnc4c3P(C)(C)=O)c3cc[nH]c3n1)-c1cnn(C)c1CCN2C [Compound 60] | < 10 | 10 to 50 | < 10 | 1 to 10 | – | – | – |
| COc1cc2c(cc1Nc1ncc(Br)c(Nc3cccnc3P(C)(C)=O)n1)-c1cnn(C)c1CCN2C [Compound 44] | 10 to 50 | 100 to 1000 | < 10 | 1 to 10 | – | – | – |
| COc1cc2c(cc1Nc1ncc(Br)c(Nc3ccc4nccnc4c3N(C)S(C)(=O)=O)n1)-c1cnn(C)c1CCN2C1CCOCC1 [Compound 138] | < 10 | 100 to 1000 | < 10 | 1 to 10 | – | – | – |
| COc1cc2c(cc1Nc1ncc(Br)c(Nc3ccccc3P(C)(C)=O)n1)-c1cnc(C)n1CCN2C [Compound 55] | 100 to 1000 | 100 to 1000 | 10 to 50 | 10 to 50 | – | – | – |
| COc1cc2c(cc1Nc1ncc(Br)c(Nc3ccccc3P(C)(C)=O)n1)-c1cnn(C)c1CCN2C1CCOCC1 [Compound 87] | < 10 | 100 to 1000 | < 10 | 1 to 10 | – | – | – |
| COc1cc2c(cc1Nc1ncc(Cl)c(Nc3ccncc3P(C)(C)=O)n1)-c1cnn(C)c1CCN2C(C)C [Compound 95] | 50 to 100 | 100 to 1000 | 10 to 50 | 1 to 10 | – | – | – |
| COc1cc2c(cc1Nc1ncc(Br)c(Nc3ccc4nccnc4c3P(C)(C)=O)n1)-c1cnn(C)c1CCN2C1CC2(C1)CN(C(C)C)C2 [Compound 90] | < 10 | 10 to 50 | < 10 | – | – | – | – |
| COc1cc2c(cc1Nc1ncc(Br)c(Nc3ccccc3P(C)(C)=O)n1)-c1cnn(C)c1CCN2C1CN(CCF)C1 [Compound 69] | < 10 | 100 to 1000 | < 10 | – | – | – | – |
| COc1cc2c(cc1Nc1ncc(Br)c(Nc3ccc4nccnc4c3P(C)(C)=O)n1)-c1cnn(C)c1CCN2C1CN(C(C)C)C1 [Compound 63] | < 10 | 10 to 50 | < 10 | – | – | – | – |
| COc1cc2c(cc1Nc1ncc(Br)c(Nc3ccc4nccnc4c3P(C)(C)=S)n1)-c1cnn(C)c1CCN2C1CC2(C1)CN(C)C2 [Compound 93] | – | – | – | – | 10 to 50 | 10 to 50 | < 10 |
| COc1cc2c(cc1Nc1ncc(Br)c(Nc3ccc4nccnc4c3P(C)(C)=O)n1)-c1cnn(C)c1CCN2C1CCN(C)CC1 [Compound 62] | < 10 | 10 to 50 | < 10 | – | – | – | – |
| COc1cc2c(cc1Nc1ncc(Br)c(Nc3ccc4nccnc4c3P(C)(C)=O)n1)-c1cnn(C)c1CCN2C1CC1 [Compound 74] | < 10 | 100 to 1000 | < 10 | – | – | – | – |
| COc1cc2c(cc1Nc1ncc(Br)c(Nc3ccc4nccnc4c3P(C)(C)=O)n1)-c1cnn(C)c1CCN2C1CCN(C)CC1F (stereo not drawn) [Compound 67] | < 10 | 50 to 100 | < 10 | – | – | – | – |
| COc1cc2c(cc1Nc1ncc(Br)c(Nc3ccccc3N(C(C)C)S(C)(=O)=O)n1)-c1cnn(C)c1CCN2C(C)C [Compound 124] | 10 to 50 | > 1000 | 10 to 50 | – | – | – | – |
| COc1cc2c(cc1Nc1ncc(Br)c(Nc3ccc4nccnc4c3P(C)(C)=O)n1)-c1cnn(C)c1CCN2C1CCCN(C)C1 (stereo not drawn) [Compound 84] | < 10 | 10 to 50 | < 10 | – | – | – | – |
| COc1cc2c(cc1Nc1ncc(Br)c(Nc3ccc4nccnc4c3P(C)(C)=S)n1)-c1cnn(C)c1CCN2C1CCN(C)CC1 [Compound 76] | – | – | – | – | < 10 | 50 to 100 | < 10 |
| COc1cc2c(cc1Nc1ncc(Br)c(Nc3ccccc3P(C)(C)=O)n1)-c1cnn(C)c1CCC2N (stereo not drawn) [Compound 50] | – | – | – | – | 10 to 50 | 100 to 1000 | 10 to 50 |
| COc1cc2c(cc1Nc1ncc(Br)c(Nc3ccc4nccnc4c3P(C)(C)=O)n1)-c1cnn(C)c1CCN2C1CN(CC2CC2)C1 [Compound 70] | < 10 | 10 to 50 | < 10 | – | – | – | – |
| COc1cc2c(cc1Nc1ncc(Br)c(Nc3ccc4nccnc4c3NS(C)(=O)=O)n1)-c1cnn(C)c1CCN2 [Compound 114] | – | – | – | – | < 10 | 100 to 1000 | < 10 |
| COc1cc2c(cc1Nc1ncc(Br)c(Nc3ccccc3NS(C)(=O)=O)n1)-c1cnn(C)c1CCN2C [Compound 32] | < 10 | 100 to 1000 | < 10 | – | – | – | – |
| COc1cc2c(cc1Nc1ncc(Br)c(Nc3ccc4nccnc4c3NS(C)(=O)=O)n1)-c1cnn(C)c1CCN2CC(C)C [Compound 133] | < 10 | 100 to 1000 | < 10 | – | – | – | – |
| COc1cc2c(cc1Nc1ncc(Cl)c(Nc3ccc4nccnc4c3P(C)(C)=O)n1)-c1cnn(C)c1CCN2C [Compound 13] | < 10 | 50 to 100 | < 10 | – | – | – | – |
| COc1cc2c(cc1Nc1ncc(Br)c(Nc3ccc4nccnc4c3P(C)(C)=O)n1)-c1cnn(C)c1CCN2C1CCOCC1 [Compound 88] | < 10 | 50 to 100 | < 10 | – | – | – | – |
| COc1cc2c(cc1Nc1ncc(Br)c(Nc3ccccc3P(C)(C)=O)n1)-c1cnn(C)c1CCN2C1CN(C)C1 [Compound 59] | 10 to 50 | 100 to 1000 | 10 to 50 | – | – | – | – |
| CCN1CCc2c(cnn2C)-c2cc(Nc3ncc(Br)c(Nc4ccc5nccnc5c4NS(C)(=O)=O)n3)c(OC)cc21 [Compound 139] | < 10 | 100 to 1000 | < 10 | – | – | – | – |
| COc1cc2c(cc1Nc1ncc(C)c(Nc3ccc4nccnc4c3P(C)(C)=O)n1)-c1cnn(C)c1CCN2C(C)C [Compound 85] | < 10 | 100 to 1000 | < 10 | – | – | – | – |
| CNS(=O)(=O)c1ccccc1Nc1nc(Nc2cc3c(cc2OC)N(C(C)C)CCc2c-3cnn2C)ncc1Br [Compound 127] | 100 to 1000 | 100 to 1000 | 100 to 1000 | – | – | – | – |
| COc1cc2c(cc1Nc1ncc(Br)c(Nc3ccc4nccnc4c3P(C)(C)=O)n1)-c1cnn(C)c1CCN2C [Compound 1] | < 10 | 50 to 100 | < 10 | – | – | – | – |
| COc1cc2c(cc1Nc1ncc(Br)c(Nc3ccccc3P(C)(C)=O)n1)-c1cnn(C)c1CCN2C1COC1 [Compound 64] | 10 to 50 | 100 to 1000 | < 10 | – | – | – | – |
| COc1cc2c(cc1Nc1ncc(Br)c(Nc3ccc4nccnc4c3P(C)(C)=O)n1)-c1cnn(C)c1CCN2C1CC2(C1)CN(C)C2 [Compound 89] | 10 to 50 | 10 to 50 | 10 to 50 | – | – | – | – |
